Measurements from article PMC10471714, “G6PDi-1 is a Potent Inhibitor of G6PDH and of Pentose Phosphate pathway-dependent Metabolic Processes in Cultured Primary Astrocytes” (Neurochemical Research, 2023).

How the values were obtained:
[1] = target: T1, G6PDH (glucose-6-phosphate dehydrogenase) (Rattus norvegicus, UniProt P05370); assay: NADPH absorbance at […] nm in astrocyte lysate; assay type: biochemical; details: 3.3 mM G6P, 0.2 mM NADP+, 6.3 mM MgCl2, 5 mM maleimide, pH 7.5, room temperature; read-out: half-maximal inhibition
T1 construct: gene G6pdx; native cytosolic enzyme in soluble lysate supernatant of primary astrocyte-rich cultures; not purified
T1 sequence (P05370 2-515): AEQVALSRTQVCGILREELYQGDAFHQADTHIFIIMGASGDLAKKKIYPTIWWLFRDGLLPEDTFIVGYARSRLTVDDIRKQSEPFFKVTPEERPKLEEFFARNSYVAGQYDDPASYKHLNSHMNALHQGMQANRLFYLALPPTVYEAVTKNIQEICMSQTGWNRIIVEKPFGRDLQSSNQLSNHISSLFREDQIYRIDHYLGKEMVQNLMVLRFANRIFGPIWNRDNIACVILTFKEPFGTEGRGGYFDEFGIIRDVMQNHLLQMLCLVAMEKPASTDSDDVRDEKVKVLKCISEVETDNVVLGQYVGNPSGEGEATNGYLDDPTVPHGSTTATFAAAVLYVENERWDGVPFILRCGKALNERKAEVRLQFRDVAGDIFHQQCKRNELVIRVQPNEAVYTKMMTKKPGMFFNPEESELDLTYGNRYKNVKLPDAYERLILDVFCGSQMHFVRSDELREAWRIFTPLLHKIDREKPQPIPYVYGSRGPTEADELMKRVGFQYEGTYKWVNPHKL

[2] = target: T2, 6PGDH (6-phosphogluconate dehydrogenase) (Rattus norvegicus, UniProt P85968); assay: NADPH absorbance at […] nm in astrocyte lysate; assay type: biochemical
T2 construct: gene Pgd; native cytosolic enzyme in soluble lysate supernatant of primary astrocyte-rich cultures; not purified
T2 sequence (P85968 2-483): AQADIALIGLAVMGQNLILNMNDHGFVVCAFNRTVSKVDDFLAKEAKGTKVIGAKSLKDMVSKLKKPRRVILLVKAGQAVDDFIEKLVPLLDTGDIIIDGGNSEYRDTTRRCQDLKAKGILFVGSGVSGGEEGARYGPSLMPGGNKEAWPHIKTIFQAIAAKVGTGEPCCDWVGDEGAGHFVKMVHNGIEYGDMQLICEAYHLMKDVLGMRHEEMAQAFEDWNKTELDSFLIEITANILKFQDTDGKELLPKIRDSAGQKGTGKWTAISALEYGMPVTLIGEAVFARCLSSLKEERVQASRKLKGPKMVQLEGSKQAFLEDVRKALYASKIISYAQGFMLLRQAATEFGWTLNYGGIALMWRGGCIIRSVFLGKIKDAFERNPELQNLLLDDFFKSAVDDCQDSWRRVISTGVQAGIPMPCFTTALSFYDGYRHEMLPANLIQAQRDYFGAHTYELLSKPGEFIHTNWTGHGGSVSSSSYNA

SMILES | IC50 [1] [µM] | inhibition at 100 µM [2] [%]
C[C@]12CC[C@H](O)CC1=CC[C@@H]1[C@@H]2CC[C@]2(C)C(=O)CC[C@@H]12 [DHEA] | 9.2 ± 3.5 | 
N#Cc1cc(Nc2ncc3c(n2)CCCCC3=O)cs1 [G6PDi-1] |  | 15
